How the values were obtained:
A2780 [1] = experiment: inhibitory concentration against estrogen independent human ovarian cancer cell line A2780cp; format: functional, cell-based
Estrogen receptor [2] = target: T1, Estrogen receptor (Homo sapiens, UniProt Q92731+P03372); experiment: Inhibition of estrogen dependent human uterus cancer RL-95-2 cell proliferation; format: functional
[3] = inhibitory concentration against estrogen independent human uterus cancer cell line KLE; format: functional, cell-based; settings: cancer cell lines
A2780 [4] = experiment: inhibitory concentration against estrogen independent human ovarian cancer cell line A2780wt; format: functional, cell-based
Estrogen receptor [5] = target: T1, Estrogen receptor; experiment: Inhibition of estrogen dependent human ovarian cancer SKOV-3 cell proliferation; format: functional, cell-based; settings: sk-ov-3
HeLa = experiment: inhibitory concentration against estrogen independent human uterus cancer cell line HeLa; format: functional, cell-based
[6] = inhibitory concentration against estrogen independent human uterus cancer cell line HEC-1-A; format: functional, cell-based; settings: cancer cell lines
Estrogen receptor [7] = target: T1, Estrogen receptor; experiment: Inhibition of estrogen dependent human ovarian cancer OVCAR-3 cell proliferation; format: functional, cell-based
Estrogen receptor [8] = target: T1, Estrogen receptor; experiment: Inhibition of estrogen dependent human uterus cancer Ishikawa cell proliferation; format: functional, cell-based

IC50 (A2780 [1]): 6.5 µM
IC50 (Estrogen receptor [2]): 10.3 µM
IC50 [3]: 12.5 µM
IC50 (A2780 [4]): 0.7 µM
IC50 (Estrogen receptor [5]): 5.8 µM
IC50 (HeLa): 3.6 µM
IC50 [6]: 11.7 µM
IC50 (Estrogen receptor [7]): 2.5 µM
IC50 (Estrogen receptor [8]): 7.9 µM
Sequence: CISPLATIN
